In patent US9796711B2, “Substituted pyrazolo[3,4-b]pyridin-6-carboxylic acids and method of use” (AbbVie S.àr.l., priority 2015, dated 2017):

Tests used:
ΔF508-CFTR [1] = molecular target: T1, ΔF508-CFTR (Homo sapiens, UniProt P13569, DEL508-508); experiment: CFTR cell surface levels using HRP-tagged ΔF508-CFTR expressing CFBE cells, in the presence of a co-corrector; type: cell-based; settings: HRP-tagged ΔF508-CFTR expressing CFBE cells, in the presence of 3 μM co-corrector; for EC50: read-out: EC50
T1 construct: host or cells: CFBE41o-, doxycycline-inducible
T1 sequence (P13569 with tags, fused parts or gaps DEL508-508): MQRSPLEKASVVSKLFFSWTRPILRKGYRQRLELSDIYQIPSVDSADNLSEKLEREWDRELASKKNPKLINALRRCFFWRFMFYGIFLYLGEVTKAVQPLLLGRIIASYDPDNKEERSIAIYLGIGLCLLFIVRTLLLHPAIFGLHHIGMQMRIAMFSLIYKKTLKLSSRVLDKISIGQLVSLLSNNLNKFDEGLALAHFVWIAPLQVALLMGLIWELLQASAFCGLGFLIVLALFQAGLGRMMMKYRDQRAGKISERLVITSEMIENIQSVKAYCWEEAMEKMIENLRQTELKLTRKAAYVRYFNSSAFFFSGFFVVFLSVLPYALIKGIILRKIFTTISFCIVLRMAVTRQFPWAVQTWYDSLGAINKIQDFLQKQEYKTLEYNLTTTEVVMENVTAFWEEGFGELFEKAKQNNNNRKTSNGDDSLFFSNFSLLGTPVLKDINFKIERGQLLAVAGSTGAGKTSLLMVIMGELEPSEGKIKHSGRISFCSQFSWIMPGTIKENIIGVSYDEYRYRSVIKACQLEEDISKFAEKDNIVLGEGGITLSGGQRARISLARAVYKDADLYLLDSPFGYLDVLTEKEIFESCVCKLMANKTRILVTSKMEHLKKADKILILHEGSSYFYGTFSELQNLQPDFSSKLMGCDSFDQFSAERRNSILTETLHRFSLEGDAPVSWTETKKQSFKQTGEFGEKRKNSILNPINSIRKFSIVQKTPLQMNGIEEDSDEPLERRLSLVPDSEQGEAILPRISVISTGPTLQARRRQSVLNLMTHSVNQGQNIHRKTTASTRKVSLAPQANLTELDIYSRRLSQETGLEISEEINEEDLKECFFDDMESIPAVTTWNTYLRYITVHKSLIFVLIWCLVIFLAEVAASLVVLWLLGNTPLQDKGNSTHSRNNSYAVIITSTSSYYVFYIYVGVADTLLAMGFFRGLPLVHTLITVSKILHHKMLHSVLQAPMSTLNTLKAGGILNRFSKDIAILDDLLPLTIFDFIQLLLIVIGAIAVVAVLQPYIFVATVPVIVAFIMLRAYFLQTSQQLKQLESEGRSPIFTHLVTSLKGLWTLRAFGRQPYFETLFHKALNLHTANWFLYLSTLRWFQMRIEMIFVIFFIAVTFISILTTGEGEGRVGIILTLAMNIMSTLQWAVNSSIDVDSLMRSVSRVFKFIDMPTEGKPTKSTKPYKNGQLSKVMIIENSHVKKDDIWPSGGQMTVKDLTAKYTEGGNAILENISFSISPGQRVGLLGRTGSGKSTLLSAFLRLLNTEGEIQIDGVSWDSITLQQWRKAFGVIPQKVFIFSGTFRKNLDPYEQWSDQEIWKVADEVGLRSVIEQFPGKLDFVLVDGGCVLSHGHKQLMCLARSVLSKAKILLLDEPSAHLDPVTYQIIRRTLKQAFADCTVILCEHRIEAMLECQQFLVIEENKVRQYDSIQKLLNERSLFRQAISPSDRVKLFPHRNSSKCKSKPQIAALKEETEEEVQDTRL
In short: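 Cells were seeded with 0.5 μg/mL doxycycline and held 68 h at 37 °C. Test compounds plus 3 μM co-corrector (final 0.1% DMSO) were then added for 20 h at 33 °C. Washed cells received HRP substrate, and luminescence was normalized between DMSO and 3 μM co-corrector controls.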

ΔF508-CFTR [2] = molecular target: T1, ΔF508-CFTR; experiment: CFTR cell surface levels using HRP-tagged ΔF508-CFTR expressing CFBE cells, intrinsic corrector capacity; type: cell-based; settings: HRP-tagged ΔF508-CFTR CFBE41o- cells, compounds alone (intrinsic corrector capacity), 20 hours at 33° C.; for % Activation: positive control 3 μM corrector; for EC50: read-out: EC50
In short: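 Here the cells express ΔF508-CFTR with horseradish peroxidase inserted in extracellular loop 4, so only rescued channel at the surface gives luminescent signal. Compounds act on their own, 20 h at the reduced temperature of 33 °C; values are percent activity relative to DMSO and a 3 μM corrector.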

| Compound | % Activation (ΔF508-CFTR [1]) [%] | EC50 (ΔF508-CFTR [1]) [nM] | % Activation (ΔF508-CFTR [2]) [%] | EC50 (ΔF508-CFTR [2]) [nM] |
| --- | --- | --- | --- | --- |
| Cc1cccc(-n2nc(C(C)C)c3c(N4CC5CN(CC#N)CC5C4)cc(C(=O)O)nc32)c1 (stereo not shown) [compound 226, 4-[5-(cyanomethyl)hexahydropyrrolo[3,4-c]pyrrol-2(1H)-yl]-1-(3-methylphenyl)-3-(propan-2-yl)-1H-pyrazolo[3,4-b]pyridine-6-carboxylic acid] | 352.2 | 1350 | 189.05 | 3340 |
| CC(C)c1nn(-c2cc(Cl)ccn2)c2nc(C(=O)O)cc(-c3ccc(N4CCOCC4)cc3)c12 [compound 229, 1-(4-chloropyridin-2-yl)-4-[4-(morpholin-4-yl)phenyl]-3-(propan-2-yl)-1H-pyrazolo[3,4-b]pyridine-6-carboxylic acid] | 298 | 1560 | 130.65 | 2150 |
| COCCN(C)c1ncc(-c2cc(C(=O)O)nc3c2c(C(C)C)nn3-c2cccc(N3CCOCC3)c2)cn1 [compound 230, 4-{2-[(2-methoxyethyl)(methyl)amino]pyrimidin-5-yl}-1-[3-(morpholin-4-yl)phenyl]-3-(propan-2-yl)-1H-pyrazolo[3,4-b]pyridine-6-carboxylic acid] | 507.3 | 514 | 368.85 | 1490 |
| CC(C)c1nn(-c2cccc(N3CCOCC3)c2)c2nc(C(=O)O)cc(-c3cnc(N(C)C4CCOCC4)nc3)c12 [compound 231, 4-{2-[methyl(oxan-4-yl)amino]pyrimidin-5-yl}-1-[3-(morpholin-4-yl)phenyl]-3-(propan-2-yl)-1H-pyrazolo[3,4-b]pyridine-6-carboxylic acid] | 625.45 | 570 | 419 | 733 |
| COc1cccc(-n2nc(C)c3c(-c4ccc(N5CCN(CC#N)CC5)cc4)cc(C(=O)O)nc32)c1 [compound 232, 4-{4-[4-(cyanomethyl)piperazin-1-yl]phenyl}-1-(3-methoxyphenyl)-3-methyl-1H-pyrazolo[3,4-b]pyridine-6-carboxylic acid] | 380.95 | 1280 | 215.6 | 1680 |
| CC(=O)N1CC2CN(c3cc(C(=O)O)nc4c3c(C(C)C)nn4-c3cccc(C)c3)CC2C1 (stereo not shown) [compound 233, 4-(5-acetylhexahydropyrrolo[3,4-c]pyrrol-2(11/)-yl)-1-(3-methylphenyl)-3-(propan-2-yl)-1H-pyrazolo[3,4-b]pyridine-6-carboxylic acid] | 249.55 | 3340 | 72.33 | 3030 |
| Cc1cccc(-n2nc(C(C)C)c3c(N4CCC5C(CCN5C(=O)OC(C)(C)C)C4)cc(C(=O)O)nc32)c1 (stereo not shown) [compound 234, 4-[1-(tert-butoxycarbonyl)octahydro-5H-pyrrolo[3,2-c]pyridin-5-yl]-1-(3-methylphenyl)-3-(propan-2-yl)-1H-pyrazolo[3,4-b]pyridine-6-carboxylic acid] | 510.27 | 368 | 292.97 | 464 |
| CC(C)c1nn(C2CCCCC2)c2nc(C(=O)O)cc(-c3cnc(N4CCC(C#N)CC4)nc3)c12 [compound 235, 4-[2-(4-cyanopiperidin-1-yl)pyrimidin-5-yl]-1-cyclohexyl-3-(propan-2-yl)-1H-pyrazolo[3,4-b]pyridine-6-carboxylic acid] | 403.1 | 743 | 206.8 | 832 |
| CC(C)c1nn(C2CCCCC2)c2nc(C(=O)O)cc(-c3cnc(N(C)C4CCOCC4)nc3)c12 [compound 236, 1-cyclohexyl-4-{2-[methyl(oxan-4-yl)amino]pyrimidin-5-yl}-3-(propan-2-yl)-1H-pyrazolo[3,4-b]pyridine-6-carboxylic acid] | 423.62 | 638 | 213.68 | 656 |
| COCCN(C)c1ncc(-c2cc(C(=O)O)nc3c2c(C(C)C)nn3C2CCCCC2)cn1 [compound 237, 1-cyclohexyl-4-{2-[(2-methoxyethyl)(methyl)amino]pyrimidin-5-yl}-3-(propan-2-yl)-1H-pyrazolo[3,4-b]pyridine-6-carboxylic acid] | 372.97 | 324 | 227 | 510 |
| COCCN(C)c1ccc(-c2cc(C(=O)O)nc3c2c(C(C)C)nn3-c2cccc(N3CCCC3)c2)cc1 [compound 238, 4-{4-[(2-methoxyethyl)(methyl)amino]phenyl}-3-(propan-2-yl)-1-[3-(pyrrolidin-1-yl)phenyl]-1H-pyrazolo[3,4-b]pyridine-6-carboxylic acid] | 613.4 | 540 | 393.7 | 827 |
| COCCN(C)c1ccc(-c2cc(C(=O)O)nc3c2c(C(C)C)nn3-c2cccc(N3CCC3)c2)cn1 [compound 239, 1-[3-(azetidin-1-yl)phenyl]-4-{6-[(2-methoxyethyl)(methyl)amino]pyridin-3-yl}-3-(propan-2-yl)-1H-pyrazolo[3,4-b]pyridine-6-carboxylic acid] | 495.85 | 713 | 327.55 | 875 |
| CC(C)c1nn(-c2cccc(N3CCC3)c2)c2nc(C(=O)O)cc(-c3ccc(N(C)C4CCOCC4)cc3)c12 [compound 240, 1-[3-(azetidin-1-yl)phenyl]-4-{4-[methyl(oxan-4-yl)amino]phenyl}-3-(propan-2-yl)-1H-pyrazolo[3,4-b]pyridine-6-carboxylic acid] | 609.05 | 516 | 380.6 | 588 |
| CC(C)c1nn(-c2cc(N3CCOCC3)ccn2)c2nc(C(=O)O)cc(-c3ccc(N4CCOCC4)cc3)c12 [compound 241, 4-[4-(morpholin-4-yl)phenyl]-1-[4-(morpholin-4-yl)pyridin-2-yl]-3-(propan-2-yl)-1H-pyrazolo[3,4-b]pyridine-6-carboxylic acid] | 259.75 | 2140 | 60.46 | 3340 |
| CC(C)c1nn(-c2cccc(F)c2)c2nc(C(=O)O)cc(-c3ccc(N4CCOCC4)cc3)c12 [compound 242, 1-(3-fluorophenyl)-4-[4-(morpholin-4-yl)phenyl]-3-(propan-2-yl)-1H-pyrazolo[3,4-b]pyridine-6-carboxylic acid] | 394.12 | 338 | 206.5 | 603 |
| CC(C)c1nn(-c2ccc(F)c(F)c2)c2nc(C(=O)O)cc(-c3ccc(N4CCOCC4)cc3)c12 [compound 243, 1-(3,4-difluorophenyl)-4-[4-(morpholin-4-yl)phenyl]-3-(propan-2-yl)-1H-pyrazolo[3,4-b]pyridine-6-carboxylic acid] | 402.73 | 408 | 224.73 | 660 |
| CC(C)c1nn(-c2cc(F)cc(F)c2)c2nc(C(=O)O)cc(-c3ccc(N(C)C4CCOCC4)cc3)c12 [compound 245, 1-(3,5-difluorophenyl)-4-{4-[methyl(oxan-4-yl)amino]phenyl}-3-(propan-2-yl)-1H-pyrazolo[3,4-b]pyridine-6-carboxylic acid] | 508.37 | 627 | 267.15 | 777 |
| CC(C)c1nn(-c2cc(F)cc(F)c2)c2nc(C(=O)O)cc(-c3ccc(N(C)C4CCOCC4)nc3)c12 [compound 246, 1-(3,5-difluorophenyl)-4-{6-[methyl(oxan-4-yl)amino]pyridin-3-yl}-3-(propan-2-yl)-1H-pyrazolo[3,4-b]pyridine-6-carboxylic acid] | 457.57 | 467 | 212.75 | 464 |
| N#CC1CCN(c2ccc(-c3cc(C(=O)O)nc4c3c(C3CCC3)nn4-c3cccc(N4CCCC4)c3)cc2)CC1 [compound 247, 4-[4-(4-cyanopiperidin-1-yl)phenyl]-3-cyclobutyl-1-[3-(pyrrolidin-1-yl)phenyl]-1H-pyrazolo[3,4-b]pyridine-6-carboxylic acid] | 569.07 | 332 | 390.27 | 420 |
| N#CC1CCN(c2ccc(-c3cc(C(=O)O)nc4c3c(C3CCC3)nn4-c3cccc(N4CCCC4)c3)cn2)CC1 [compound 248] | 606.83 | 422 | 405.93 | 550 |
| CC(C)c1nn(-c2cccc(N3CCCC3)c2)c2nc(C(=O)O)cc(-c3ccc(N(C)C4CCOCC4)cc3)c12 [compound 249, 4-{4-[nethyl(oxan-4-yl)amino]phenyl}-3-(propan-2-yl)-1-[3-(pyrrolidin-1-yl)phenyl]-1H-pyrazolo[3,4-b]pyridine-6-carboxylic acid] | 596.2 | 288 | 410.6 | 475 |
| CC(C)c1nn(-c2cccc(N3CCCC3)c2)c2nc(C(=O)O)cc(-c3ccc(N(C)C4CCOCC4)nc3)c12 [compound 250, 4-{6-[methyl(oxan-4-yl)amino]pyridin-3-yl}-3-(propan-2-yl)-1[3-(pyrrolidin-1-yl)phenyl]-1H-pyrazolo[3,4-b]pyridine-6-carboxylic acid] | 622.03 | 508 | 394.7 | 456 |
